Measurements reported in the NIST ThermoML archive (doi:10.1016/j.jct.2011.12.015).
± gives the expanded uncertainty stated by the source.

Assays:
[1] = molar heat capacity at constant pressure; conditions: 101.33 kPa, Small sample (50 mg) DSC
[2] = Molar enthalpy of transition or fusion; conditions: Crystal; DSC
[3] = Crystal; DTA

O=C(O)c1ccccc1 [benzoic acid]
molar heat capacity at constant pressure ([1]; 281.06 K, Crystal): 137.39 ± 28 J/K/mol
molar heat capacity at constant pressure ([1]; 287.01 K, Crystal): 140.07 ± 28 J/K/mol
molar heat capacity at constant pressure ([1]; 293.02 K, Crystal): 142.88 ± 29 J/K/mol
molar heat capacity at constant pressure ([1]; 299 K, Crystal): 145.2 ± 29 J/K/mol
molar heat capacity at constant pressure ([1]; 305.01 K, Crystal): 147.4 ± 30 J/K/mol
molar heat capacity at constant pressure ([1]; 311.02 K, Crystal): 149.72 ± 30 J/K/mol
molar heat capacity at constant pressure ([1]; 317 K, Crystal): 152.16 ± 31 J/K/mol
molar heat capacity at constant pressure ([1]; 323.03 K, Crystal): 154.48 ± 31 J/K/mol
molar heat capacity at constant pressure ([1]; 329.02 K, Crystal): 156.93 ± 32 J/K/mol
molar heat capacity at constant pressure ([1]; 335.02 K, Crystal): 159.49 ± 32 J/K/mol
molar heat capacity at constant pressure ([1]; 341.01 K, Crystal): 161.93 ± 32 J/K/mol
molar heat capacity at constant pressure ([1]; 347.02 K, Crystal): 164.38 ± 33 J/K/mol
molar heat capacity at constant pressure ([1]; 353 K, Crystal): 166.7 ± 33 J/K/mol
molar heat capacity at constant pressure ([1]; 359.01 K, Crystal): 168.89 ± 34 J/K/mol
molar heat capacity at constant pressure ([1]; 365.01 K, Crystal): 171.21 ± 34 J/K/mol
molar heat capacity at constant pressure ([1]; 369.32 K, Crystal): 172.8 ± 35 J/K/mol
molar heat capacity at constant pressure ([1]; 407.4 K, Liquid): 230.44 ± 46 J/K/mol
molar heat capacity at constant pressure ([1]; 409 K, Liquid): 231.42 ± 46 J/K/mol
molar heat capacity at constant pressure ([1]; 410.6 K, Liquid): 232.15 ± 47 J/K/mol
molar heat capacity at constant pressure ([1]; 413.2 K, Liquid): 233.01 ± 47 J/K/mol
molar heat capacity at constant pressure ([1]; 414.8 K, Liquid): 233.5 ± 47 J/K/mol
molar heat capacity at constant pressure ([1]; 416.5 K, Liquid): 233.74 ± 47 J/K/mol
molar heat capacity at constant pressure ([1]; 418 K, Liquid): 233.98 ± 47 J/K/mol
molar heat capacity at constant pressure ([1]; 419.6 K, Liquid): 234.35 ± 47 J/K/mol
molar heat capacity at constant pressure ([1]; 421.2 K, Liquid): 234.72 ± 47 J/K/mol
molar heat capacity at constant pressure ([1]; 422.8 K, Liquid): 235.08 ± 47 J/K/mol
molar heat capacity at constant pressure ([1]; 424.4 K, Liquid): 235.45 ± 47 J/K/mol
molar heat capacity at constant pressure ([1]; 426 K, Liquid): 235.82 ± 47 J/K/mol
molar heat capacity at constant pressure ([1]; 427.6 K, Liquid): 236.06 ± 47 J/K/mol
molar heat capacity at constant pressure ([1]; 429.2 K, Liquid): 236.43 ± 47 J/K/mol
molar heat capacity at constant pressure ([1]; 430.8 K, Liquid): 236.79 ± 48 J/K/mol
molar heat capacity at constant pressure ([1]; 432 K, Liquid): 237.16 ± 48 J/K/mol
Molar enthalpy of transition or fusion [2]: 16.8 ± 0.52 kJ/mol
Normal melting temperature [3]: 121.80 ± 0.5 °C

CCCCOC(=O)c1ccc(O)cc1 [butyl 4-hydroxybenzoate]
molar heat capacity at constant pressure ([1]; 291.02 K, Crystal): 264.15 ± 53 J/K/mol
molar heat capacity at constant pressure ([1]; 293.6 K, Crystal): 266.09 ± 53 J/K/mol
molar heat capacity at constant pressure ([1]; 296.12 K, Crystal): 268.23 ± 54 J/K/mol
molar heat capacity at constant pressure ([1]; 298.7 K, Crystal): 270.36 ± 54 J/K/mol
molar heat capacity at constant pressure ([1]; 301.32 K, Crystal): 272.5 ± 55 J/K/mol
molar heat capacity at constant pressure ([1]; 303.91 K, Crystal): 274.64 ± 55 J/K/mol
molar heat capacity at constant pressure ([1]; 306.52 K, Crystal): 276.58 ± 56 J/K/mol
molar heat capacity at constant pressure ([1]; 309.1 K, Crystal): 278.72 ± 56 J/K/mol
molar heat capacity at constant pressure ([1]; 311.71 K, Crystal): 281.05 ± 56 J/K/mol
molar heat capacity at constant pressure ([1]; 314.32 K, Crystal): 283.18 ± 57 J/K/mol
molar heat capacity at constant pressure ([1]; 316.9 K, Crystal): 285.32 ± 57 J/K/mol
molar heat capacity at constant pressure ([1]; 319.51 K, Crystal): 287.65 ± 58 J/K/mol
molar heat capacity at constant pressure ([1]; 322.12 K, Crystal): 289.79 ± 58 J/K/mol
molar heat capacity at constant pressure ([1]; 324.73 K, Crystal): 292.31 ± 59 J/K/mol
molar heat capacity at constant pressure ([1]; 328.33 K, Crystal): 296.2 ± 59 J/K/mol
molar heat capacity at constant pressure ([1]; 329.85 K, Crystal): 298.33 ± 60 J/K/mol
molar heat capacity at constant pressure ([1]; 330.99 K, Crystal): 299.89 ± 60 J/K/mol
molar heat capacity at constant pressure ([1]; 353.41 K, Liquid): 386.9 ± 77 J/K/mol
molar heat capacity at constant pressure ([1]; 355.11 K, Liquid): 388.45 ± 78 J/K/mol
molar heat capacity at constant pressure ([1]; 356.8 K, Liquid): 389.04 ± 78 J/K/mol
molar heat capacity at constant pressure ([1]; 358.41 K, Liquid): 389.81 ± 78 J/K/mol
molar heat capacity at constant pressure ([1]; 360.1 K, Liquid): 390.4 ± 78 J/K/mol
molar heat capacity at constant pressure ([1]; 361.82 K, Liquid): 391.17 ± 78 J/K/mol
molar heat capacity at constant pressure ([1]; 363.51 K, Liquid): 391.76 ± 78 J/K/mol
molar heat capacity at constant pressure ([1]; 365.21 K, Liquid): 392.53 ± 79 J/K/mol
molar heat capacity at constant pressure ([1]; 366.81 K, Liquid): 392.92 ± 79 J/K/mol
molar heat capacity at constant pressure ([1]; 368.41 K, Liquid): 393.7 ± 79 J/K/mol
molar heat capacity at constant pressure ([1]; 370.1 K, Liquid): 394.09 ± 79 J/K/mol
molar heat capacity at constant pressure ([1]; 371.82 K, Liquid): 394.67 ± 79 J/K/mol
molar heat capacity at constant pressure ([1]; 373.51 K, Liquid): 395.25 ± 79 J/K/mol
molar heat capacity at constant pressure ([1]; 375.2 K, Liquid): 395.83 ± 79 J/K/mol
molar heat capacity at constant pressure ([1]; 376.92 K, Liquid): 396.42 ± 79 J/K/mol
molar heat capacity at constant pressure ([1]; 378.61 K, Liquid): 397 ± 80 J/K/mol
molar heat capacity at constant pressure ([1]; 379.87 K, Liquid): 397.39 ± 80 J/K/mol
Molar enthalpy of transition or fusion [2]: 25.5 ± 0.74 kJ/mol
Normal melting temperature [3]: 67.34 ± 0.5 °C
